{"source": "patent US20050032042A1", "about": "“Anti-retroviral analysis by mass spectrometry” (priority 2003, published 2005)", "key": {"[1]": {"settings": "in vivo; cited from earlier work"}, "[2]": {"settings": "in vivo; cited from earlier work", "remark": "listed apart in the source"}, "[3]": {"settings": "cited from earlier work"}, "[4]": {"settings": "for Saliva (s) vs Total Plasma (tp) regression equation / r, saliva vs total plasma / Free Plasma (f) vs Total Plasma (tp) regression equation / r, free plasma vs total plasma: human; for Saliva (s) vs Total Plasma (tp) regression equation / r, saliva vs total plasma / correlation of free drug or saliva drug concentration with total drug concentration (in words): in vivo", "procedure": "Protein binding and free drug measurement: An Institutional Review Board (IRB) approved protocol was developed for the assessment of free drug concentrations by measuring both the saliva and free drug in plasma utilizing the tandem mass spectrometric methods for plasma or serum measurement. […] A bigger sample is injected for the free drug measurement (50 uL vs 10 uL for plasma/serum.). Free drug concentrations can be measured by using either equilibrium dialysis or, more commonly, devices with molecular cutoff filters such as the Amicon Centrifree micropartition system (Millipore Corporation, Bedford, Mass.) or the Worthington Diagnostics “ultrafree” system (Worthington, Jacksonville, Fla.). Plasma ultrafiltrate is obtained by centrifuging 1 mL of plasma in Amicon system and then deproteinising as described for serum/plasma previously (15, 40)."}}, "data": [{"smiles": "Cc1c(O)cccc1C(=O)N[C@@H](CSc1ccccc1)[C@H](O)CN1C[C@H]2CCCC[C@H]2C[C@H]1C(=O)NC(C)(C)C", "note": "[Nelfinavir]", "values": [{"measurement": "Trough Concentration", "setting": "[1]", "value": 1000, "unit": "ng/mL"}, {"measurement": "C max.", "setting": "[2]", "value": 4000, "unit": "ng/mL"}, {"measurement": "C min.", "setting": "[2]", "value": 1000, "unit": "ng/mL"}, {"measurement": "Vd", "setting": "[2]", "value": 4, "unit": "L/kg"}, {"measurement": "t ½", "setting": "[2]", "value": 5, "unit": "h"}, {"measurement": "Protein Bindings %", "setting": "[3]", "value": 98, "unit": "%"}, {"measurement": "Saliva (s) vs Total Plasma (tp) regression equation", "setting": "[4]", "value": "s = 0.0026tp + 78"}, {"measurement": "r, saliva vs total plasma", "setting": "[4]", "value": 0.047}, {"measurement": "correlation of free drug or saliva drug concentration with total drug concentration (in words)", "setting": "[4]", "value": "not"}]}, {"smiles": "CC(C)(C)NC(=O)[C@@H]1CN(Cc2cccnc2)CCN1C[C@@H](O)C[C@@H](Cc1ccccc1)C(=O)N[C@H]1c2ccccc2C[C@H]1O", "note": "[Indinavir]", "values": [{"measurement": "C max.", "setting": "[2]", "value": 10000, "unit": "ng/mL"}]}, {"smiles": "Nc1ccn([C@H]2CC[C@@H](CO)O2)c(=O)n1", "note": "[Zalcitabine]", "values": [{"measurement": "Trough Concentration", "setting": "[1]", "value": "Undetectable"}, {"measurement": "C max.", "setting": "[2]", "value": "<25", "unit": "ng/mL"}, {"measurement": "C min.", "setting": "[2]", "value": "undetectable"}, {"measurement": "Vd", "setting": "[2]", "value": 0.5, "unit": "L/kg"}, {"measurement": "t ½", "setting": "[2]", "value": 2.0, "unit": "h"}, {"measurement": "Protein Bindings %", "setting": "[3]", "value": "<5", "unit": "%"}]}, {"smiles": "Cc1cn([C@H]2C=C[C@@H](CO)O2)c(=O)[nH]c1=O", "note": "[Stavudine]", "values": [{"measurement": "Trough Concentration", "setting": "[1]", "value": 20, "unit": "ng/mL"}, {"measurement": "C max.", "setting": "[2]", "value": 2000, "unit": "ng/mL"}, {"measurement": "C min.", "setting": "[2]", "value": 20, "unit": "ng/mL"}, {"measurement": "Vd", "setting": "[2]", "value": 1.0, "unit": "L/kg"}, {"measurement": "t ½", "setting": "[2]", "value": 1.1, "unit": "h"}, {"measurement": "Free Plasma (f) vs Total Plasma (tp) regression equation", "setting": "[4]", "value": "f = 0.66tp − 4"}, {"measurement": "r, free plasma vs total plasma", "setting": "[4]", "value": 0.924}, {"measurement": "r, saliva vs total plasma", "setting": "[4]", "value": 0.909}, {"measurement": "correlation of free drug or saliva drug concentration with total drug concentration (in words)", "setting": "[4]", "value": "good correlations"}]}, {"smiles": "CC(C)(C)NC(=O)[C@@H]1C[C@@H]2CCCC[C@@H]2CN1C[C@@H](O)[C@H](Cc1ccccc1)NC(=O)[C@H](CC(N)=O)NC(=O)c1ccc2ccccc2n1", "note": "[Saquinavir]", "values": [{"measurement": "Trough Concentration", "setting": "[1]", "value": "15 to 40", "unit": "ng/mL"}, {"measurement": "C max.", "setting": "[2]", "value": 500, "unit": "ng/mL"}, {"measurement": "Vd", "setting": "[2]", "value": 10, "unit": "L/kg"}, {"measurement": "t ½", "setting": "[2]", "value": 12, "unit": "h"}]}, {"smiles": "CC(C)c1nc(CN(C)C(=O)N[C@H](C(=O)N[C@@H](Cc2ccccc2)C[C@H](O)[C@H](Cc2ccccc2)NC(=O)OCc2cncs2)C(C)C)cs1", "note": "[Ritonavir]", "values": [{"measurement": "Trough Concentration", "setting": "[1]", "value": 1000, "unit": "ng/mL"}, {"measurement": "C max.", "setting": "[2]", "value": 14000, "unit": "ng/mL"}, {"measurement": "C min.", "setting": "[2]", "value": 1000, "unit": "ng/mL"}, {"measurement": "Vd", "setting": "[2]", "value": 0.4, "unit": "L/kg"}, {"measurement": "t ½", "setting": "[2]", "value": 4, "unit": "h"}, {"measurement": "Saliva (s) vs Total Plasma (tp) regression equation", "setting": "[4]", "value": "s = 0.043tp + 109"}, {"measurement": "r, saliva vs total plasma", "setting": "[4]", "value": 0.991}, {"measurement": "correlation of free drug or saliva drug concentration with total drug concentration (in words)", "setting": "[4]", "value": "good correlations"}]}, {"smiles": "CC(C)Nc1cccnc1N1CCN(C(=O)c2cc3cc(NS(C)(=O)=O)ccc3[nH]2)CC1", "note": "[Delavirdine]", "values": [{"measurement": "Trough Concentration", "setting": "[1]", "value": "3000 to 8000", "unit": "ng/mL"}, {"measurement": "C max.", "setting": "[2]", "value": 16000, "unit": "ng/mL"}, {"measurement": "C min.", "setting": "[2]", "value": 3000, "unit": "ng/mL"}, {"measurement": "t ½", "setting": "[2]", "value": 6, "unit": "h"}, {"measurement": "Protein Bindings %", "setting": "[3]", "value": 99, "unit": "%"}]}, {"smiles": "Cc1cccc(C)c1OCC(=O)N[C@@H](Cc1ccccc1)[C@@H](O)C[C@H](Cc1ccccc1)NC(=O)[C@H](C(C)C)N1CCCNC1=O", "note": "[Lopinavir]", "values": [{"measurement": "Saliva (s) vs Total Plasma (tp) regression equation", "setting": "[4]", "value": "s = 0.05tp + 194"}, {"measurement": "r, saliva vs total plasma", "setting": "[4]", "value": 0.777}, {"measurement": "correlation of free drug or saliva drug concentration with total drug concentration (in words)", "setting": "[4]", "value": "good correlations"}]}, {"smiles": "Nc1ccn([C@@H]2CS[C@H](CO)O2)c(=O)n1", "note": "[Lamivudine]", "values": [{"measurement": "Trough Concentration", "setting": "[1]", "value": "100 to 1000", "unit": "ng/mL"}, {"measurement": "C max.", "setting": "[2]", "value": 1800, "unit": "ng/mL"}]}, {"smiles": "Cc1cn([C@H]2C[C@H](N=[N+]=[N-])[C@@H](CO)O2)c(=O)[nH]c1=O", "note": "[Zidovudine]", "values": [{"measurement": "Trough Concentration", "setting": "[1]", "value": "<20", "unit": "ng/mL"}, {"measurement": "C max.", "setting": "[2]", "value": 1800, "unit": "ng/mL"}, {"measurement": "C min.", "setting": "[2]", "value": "<20", "unit": "ng/mL"}, {"measurement": "Vd", "setting": "[2]", "value": 1.4, "unit": "L/kg"}, {"measurement": "t ½", "setting": "[2]", "value": 1.2, "unit": "h"}, {"measurement": "Protein Bindings %", "setting": "[3]", "value": "<5", "unit": "%"}, {"measurement": "Free Plasma (f) vs Total Plasma (tp) regression equation", "setting": "[4]", "value": "f = 0.14tp + 27"}, {"measurement": "r, free plasma vs total plasma", "setting": "[4]", "value": 0.907}, {"measurement": "correlation of free drug or saliva drug concentration with total drug concentration (in words)", "setting": "[4]", "value": "good correlations"}]}, {"smiles": "O=c1[nH]cnc2c1ncn2[C@H]1CC[C@@H](CO)O1", "note": "[Didanosine]", "values": [{"measurement": "Trough Concentration", "setting": "[1]", "value": "100 to 300", "unit": "ng/mL"}, {"measurement": "C max.", "setting": "[2]", "value": 24000, "unit": "ng/mL"}, {"measurement": "Vd", "setting": "[2]", "value": 0.8, "unit": "L/kg"}, {"measurement": "Free Plasma (f) vs Total Plasma (tp) regression equation", "setting": "[4]", "value": "f = 0.19tp + 47"}, {"measurement": "r, free plasma vs total plasma", "setting": "[4]", "value": 0.749}, {"measurement": "Saliva (s) vs Total Plasma (tp) regression equation", "setting": "[4]", "value": "s = 0.29tp + 20"}, {"measurement": "r, saliva vs total plasma", "setting": "[4]", "value": 0.912}, {"measurement": "correlation of free drug or saliva drug concentration with total drug concentration (in words)", "setting": "[4]", "value": "good correlations"}]}, {"smiles": "Cc1ccnc2c1NC(=O)c1cccnc1N2C1CC1", "note": "[Nevirapine]", "values": [{"measurement": "Trough Concentration", "setting": "[1]", "value": 3000, "unit": "ng/mL"}, {"measurement": "C max.", "setting": "[2]", "value": 20000, "unit": "ng/mL"}, {"measurement": "C min.", "setting": "[2]", "value": 3000, "unit": "ng/mL"}, {"measurement": "Vd", "setting": "[2]", "value": 1.2, "unit": "L/kg"}, {"measurement": "t ½", "setting": "[2]", "value": 30, "unit": "h"}, {"measurement": "Protein Bindings %", "setting": "[3]", "value": 60, "unit": "%"}, {"measurement": "Free Plasma (f) vs Total Plasma (tp) regression equation", "setting": "[4]", "value": "f = 0.36tp + 483"}, {"measurement": "r, free plasma vs total plasma", "setting": "[4]", "value": 0.909}, {"measurement": "r, saliva vs total plasma", "setting": "[4]", "value": 0.901}, {"measurement": "correlation of free drug or saliva drug concentration with total drug concentration (in words)", "setting": "[4]", "value": "good correlations"}]}]}
